T/C data for 24 molecules are collected here from PubChem BioAssay AID192 (DTP/NCI, 2004).

The experiment has as its system BDF1 mice, B16 melanoma ip, median survival T/C. The experiment is described as follows: NCI In Vivo Anticancer Drug Screen. Data for tumor model B16 Melanoma (intraperitoneal) in B6D2F1 (BDF1) mice. As to conditions: endpoint: median survival time, higher = longer survival. The procedure, abridged:
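Read-out: survival or tumor size, given as treated/control ratio. Controls received vehicle only; animals bore transplantable tumors.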

Where [1] appears, read: dose: 3.12 mg/kg/injection, schedule: Q01DX009 (ip), vehicle: saline.
The mark [2] stands for this setting: dose: 6.25 mg/kg/injection, schedule: Q01DX009 (ip), vehicle: saline.
Where [3] appears, read: dose: 12.5 mg/kg/injection, schedule: Q01DX009 (ip), vehicle: saline.
The mark [4] stands for this setting: dose: 25.0 mg/kg/injection, schedule: Q01DX009 (ip), vehicle: saline.
Setting [5] is: dose: 50.0 mg/kg/injection, schedule: Q01DX009 (ip), vehicle: saline.
Where [6] appears, read: dose: 50.0 mg/kg/injection, schedule: Q04DX003 (ip), vehicle: saline.
Setting [7] is: dose: 50.0 mg/kg/injection, schedule: Q01DX009 (ip), vehicle: Klucel (hydroxypropylcellulose) (HPC).
The mark [8] stands for this setting: dose: 100.0 mg/kg/injection, schedule: Q01DX009 (ip), vehicle: Klucel (hydroxypropylcellulose) (HPC).
[9] abbreviates: dose: 200.0 mg/kg/injection, schedule: Q01DX009 (ip), vehicle: Klucel (hydroxypropylcellulose) (HPC).
Setting [10] is: dose: 400.0 mg/kg/injection, schedule: Q01DX009 (ip), vehicle: Klucel (hydroxypropylcellulose) (HPC).
[11] abbreviates: dose: 100.0 mg/kg/injection, schedule: Q04DX003 (ip), vehicle: saline with Tween-80.
Setting [12] is: dose: 50.0 mg/kg/injection, schedule: Q01DX009 (ip), vehicle: saline with Tween-80.
[13] abbreviates: dose: 100.0 mg/kg/injection, schedule: Q01DX009 (ip), vehicle: saline with Tween-80.
The mark [14] stands for this setting: dose: 200.0 mg/kg/injection, schedule: Q01DX009 (ip), vehicle: saline with Tween-80.
The mark [15] stands for this setting: dose: 25.0 mg/kg/injection, schedule: Q01DX009 (ip), vehicle: saline with Tween-80.

Several values for one entry are separate records, joined by “and”; a condition that tells them apart may be missing. Equal values may be shown once. Toxic doses and inconclusive results are not listed.

On to `CCc1ccccc1NC(=O)Nc1ccc(Cl)cc1`, for which the T/C is, setting by setting: (dose: 100.0 mg/kg/injection, schedule: Q01DX009 (ip), vehicle: gum acacia) 101 % of control; (dose: 200.0 mg/kg/injection, schedule: Q01DX009 (ip), vehicle: gum acacia) 97 % of control; (dose: 400.0 mg/kg/injection, schedule: Q01DX009 (ip), vehicle: gum acacia) 93 % of control.

As to `OCCN1CCN(CCCN2c3ccccc3C=Cc3ccccc32)CC1`, the T/C is, setting by setting: under setting [1], 97 % of control; (dose: 3.12 mg/kg/injection, schedule: Q04DX003 (ip), vehicle: saline) 105 % of control; under setting [2], 110 % of control; under setting [3], 100 % of control; (dose: 12.5 mg/kg/injection, schedule: Q04DX003 (ip), vehicle: saline) 107 % of control; under setting [4], 95 % of control. Further, the T/C is 122 % of control (dose: 25.0 mg/kg/injection, schedule: Q04DX003 (ip), vehicle: saline); 95 % of control under setting [5]; 115 % of control under setting [6].

As to `O=C(/C=C/c1cccc2ccccc12)c1ccc(Cl)cc1`, the T/C under setting [7] is 92 % of control; the T/C (dose: 50.0 mg/kg/injection, schedule: Q04DX003 (ip), vehicle: Klucel (hydroxypropylcellulose) (HPC)) is 103 % of control; the T/C under setting [8] was 96 % of control; the T/C (dose: 100.0 mg/kg/injection, schedule: Q04DX003 (ip), vehicle: Klucel (hydroxypropylcellulose) (HPC)) was 100 % of control; the T/C under setting [9] is 92 % of control; the T/C (dose: 200.0 mg/kg/injection, schedule: Q04DX003 (ip), vehicle: Klucel (hydroxypropylcellulose) (HPC)) was 93 % of control.

Take `CCOC(=O)C(Cc1ccc(Cl)cc1)(Cc1ccc(Cl)cc1)C(=O)OCC`: the T/C under setting [8] is 106 % of control, the T/C under setting [9] is 100 % of control and the T/C under setting [10] was 93 % of control.

`COC(=O)c1ccc(C(=O)OC)cc1`: the T/C was 103 % of control (dose: 0.05 mg/kg/injection, schedule: Q04DX003 (ip), vehicle: water); 96 % of control (dose: 0.1 mg/kg/injection, schedule: Q04DX003 (ip), vehicle: water); 106 % of control (dose: 0.2 mg/kg/injection, schedule: Q04DX003 (ip), vehicle: water); 113 % of control (dose: 0.4 mg/kg/injection, schedule: Q04DX003 (ip), vehicle: water).

As to `CCOc1ccccc1NC(=O)Nc1cccc2ccccc12`, the T/C runs as follows: under setting [8], 103 % of control; under setting [9], 100 % of control; under setting [10], 103 % of control.

As to `N#CCN(CC#N)CC#N`, the T/C was 97 % of control (dose: 1.56 mg/kg/injection, schedule: Q01DX009 (ip), vehicle: saline); 102 % of control (dose: 3.13 mg/kg/injection, schedule: Q01DX009 (ip), vehicle: saline); 113 % of control (dose: 3.13 mg/kg/injection, schedule: Q04DX003 (ip), vehicle: saline with Tween-80); 100 % of control under setting [2]; 94 % of control (dose: 6.25 mg/kg/injection, schedule: Q04DX003 (ip), vehicle: saline with Tween-80).

Regarding `CC(=O)OC(C)C(=O)C(Cl)(Cl)Cl` (centres undefined), the T/C by setting is: under setting [8], 96 % of control; under setting [9], 107 % of control; under setting [10], 107 % of control.

For the molecule `CC1(C)N=C(N)N=C(N)N1c1ccc(OCC(=O)Nc2ccc(S(=O)(=O)F)cc2)c(Cl)c1`, the T/C runs as follows: under setting [6], 107 % of control; (dose: 100.0 mg/kg/injection, schedule: Q04DX003 (ip), vehicle: saline) 124 % of control.

`CC(=O)NC1CCCCC1`: the T/C was 100 % of control (dose: 33.0 mg/kg/injection, schedule: Q04DX003 (ip), vehicle: saline with Tween-80); 93 % of control (dose: 75.0 mg/kg/injection, schedule: Q04DX003 (ip), vehicle: saline with Tween-80); 150 % of control under setting [11].

For the molecule `C=C1CCN(c2ccc(F)cc2)C1=O`, the T/C was 104 % of control (dose: 4.0 mg/kg/injection, schedule: Q01DX009 (ip), vehicle: saline + alcohol); 100 % of control (dose: 16.0 mg/kg/injection, schedule: Q01DX009 (ip), vehicle: saline + alcohol); 112 % of control (dose: 32.0 mg/kg/injection, schedule: Q01DX009 (ip), vehicle: saline + alcohol); 110 % of control (dose: 64.0 mg/kg/injection, schedule: Q01DX009 (ip), vehicle: saline + alcohol).

As for `CS(=O)(=O)OCC(O)C(O)COS(C)(=O)=O` (centres undefined), the T/C runs as follows: under setting [12], 100 % of control; under setting [13], 102 % of control; under setting [14], 103 % of control and 114 % of control; (dose: 800.0 mg/kg/injection, schedule: Q01DX009 (ip), vehicle: saline with Tween-80) 153 % of control.

For `CC(C)=CCc1c2c(c(O)c3c(=O)c(-c4ccc(O)c(O)c4)coc13)C=CC(C)(C)O2`, the T/C was 100 % of control under setting [15], 94 % of control under setting [12], 94 % of control under setting [13] and 100 % of control under setting [14].

As to `N#C/C(=C\c1ccncc1)c1csc2ccccc12`, the T/C is 88 % of control under setting [7] and 89 % of control under setting [8].

`CCN(CC)C(=O)c1cccnc1`: the T/C by setting is: under setting [3], 109 % of control; under setting [4], 123 % of control; under setting [5], 107 % of control; (dose: 100.0 mg/kg/injection, schedule: Q01DX009 (ip), vehicle: saline) 103 % of control; (dose: 200.0 mg/kg/injection, schedule: Q01DX009 (ip), vehicle: saline) 102 % of control.

Regarding `C1COC(NC2CC3CCC2C3)=N1` (centres undefined), the T/C (dose: 6.25 mg/kg/injection, schedule: Q01DX009 (ip), vehicle: saline with Tween-80) is 107 % of control; the T/C (dose: 12.5 mg/kg/injection, schedule: Q01DX009 (ip), vehicle: saline with Tween-80) is 100 % of control; the T/C under setting [15] was 100 % of control.

In the case of `COc1c(O)cc2c(c1OC)-c1ccc(OC)c(=O)cc1[C@@H](NC(C)=O)CC2`, the T/C (dose: 0.62 mg/kg/injection, schedule: Q01DX009 (ip), vehicle: saline with Tween-80) is 123 % of control.

With `C/C=C/c1ccc(OC(C)=O)c(OC)c1`, the T/C by setting is: under setting [13], 106 % of control; under setting [14], 97 % of control; (dose: 400.0 mg/kg/injection, schedule: Q01DX009 (ip), vehicle: saline with Tween-80) 100 % of control.

As for `CSc1ccc(N=Cc2ccc3c(c2)OCO3)cc1`, the T/C is 90 % of control under setting [8] and 88 % of control under setting [9].

Consider `O=[N+]([O-])c1ccc(NCCO)c([N+](=O)[O-])c1`, for which the T/C is 100 % of control under setting [12]; 100 % of control under setting [13]; 94 % of control under setting [11]; 92 % of control under setting [14]; 89 % of control (dose: 200.0 mg/kg/injection, schedule: Q04DX003 (ip), vehicle: saline with Tween-80).

For the molecule `CC(=O)NS(=O)(=O)c1ccc(NC(=O)c2ccccc2C(=O)O)cc1`, the T/C under setting [7] is 98 % of control, the T/C under setting [8] was 96 % of control and the T/C under setting [9] was 93 % of control.

As to `CC[C@H]1CN2CCc3cc(OC)c(OC)cc3[C@@H]2C[C@@H]1C[C@H]1NCCc2cc(O)c(OC)cc21`, the T/C is, setting by setting: (dose: 2.0 mg/kg/injection, schedule: Q01DX009 (ip), vehicle: saline + alcohol) 118 % of control; (dose: 2.0 mg/kg/injection, schedule: Q01DX009 (ip), vehicle: saline) 108 % of control and 120 % of control; (dose: 8.0 mg/kg/injection, schedule: Q01DX009 (ip), vehicle: saline + alcohol) 113 % of control; (dose: 8.0 mg/kg/injection, schedule: Q04DX003 (ip), vehicle: alkali diluted with saline) 117 % of control; (dose: 16.0 mg/kg/injection, schedule: Q04DX003 (ip), vehicle: alkali diluted with saline) 108 % of control; (dose: 32.0 mg/kg/injection, schedule: Q04DX003 (ip), vehicle: alkali diluted with saline) 122 % of control.

In the case of `Cc1cc2ncn(CC(=O)O)c2cc1C`, the T/C is 95 % of control under setting [15], 97 % of control under setting [12] and 97 % of control under setting [13].

Regarding `CCOc1ccc(-c2nc3ccc(-c4nc5ccc(N6CCN(C)CC6)cc5[nH]4)cc3[nH]2)cc1`, the T/C was 106 % of control under setting [1], 113 % of control under setting [2] and 112 % of control under setting [3].
